From ChEMBL document CHEMBL1201862, “PubChem BioAssay data set” (2004) come the findings set out here.

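Cultured in 96-well plates, cells were exposed to test compound for 48 hours across five concentrations. GI50: concentration for 50% inhibition of growth.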 The source made the active and inactive calls. Rule as the data show it: active = GI50 up to about 1.1 µM and inactive = higher. Where only a bound is given, the exact number is not on record here.

Test systems include LOX IMVI; IGROV-1; SF-268; SNB-75; SNB-19; NCI-H460; CCRF-CEM; A498; OVCAR-4; ACHN; SK-OV-3; U-251; K562; KM12; UACC-257; HCT-15; SF-295; T47D; MDA-N.
What all share (assay): NCI-60 cell line screen, 48 h

Regarding `O=[N+]([O-])c1cc(C(F)(F)F)cc([N+](=O)[O-])c1CCl`, the GI50 in the assay on LOX IMVI is 0.0826 µM (active); with IGROV-1 it was 2.32 µM (inactive); with SF-268, 4.09 µM (inactive); in the assay on SNB-75, 4.5 µM (inactive); in the assay with SNB-19 it was 7.35 µM (inactive); in the assay with NCI-H460, 5.78 µM (inactive). The GI50 in the assay with CCRF-CEM was 0.0993 µM (active); in the assay on A498, 18.6 µM (inactive); with OVCAR-4, 1.63 µM (inactive); in the assay on ACHN it was 14.5 µM (inactive); in the assay on SK-OV-3, 5.73 µM (inactive); with U-251 it was 3.61 µM (inactive). Also, the GI50 was 0.18 µM (active) in the assay on K562; 2.23 µM (inactive) in the assay on KM12; 3.72 µM (inactive) in the assay with UACC-257; 1.58 µM in the assay with HCT-15; 5.78 µM (inactive) with SF-295.
Consider `COc1cccc(NC(=O)C(C)(C)C)c1C=O`, for which the GI50 is 46.1 µM (inactive) in the assay on LOX IMVI; 56.1 µM (inactive) in the assay with IGROV-1; 47.5 µM (inactive) with SF-268; 39.3 µM (inactive) in the assay with SNB-75; 51.2 µM (inactive) in the assay with SNB-19; > 100 µM (inactive) with NCI-H460. Also, the GI50 is 32.1 µM (inactive) with CCRF-CEM; > 100 µM (inactive) in the assay on A498; 46.1 µM (inactive) in the assay on OVCAR-4; 56.2 µM (inactive) in the assay with ACHN; 82.8 µM (inactive) in the assay on SK-OV-3; 36.6 µM (inactive) with U-251. The GI50 was 26.9 µM (inactive) with K562; 42.3 µM (inactive) in the assay with KM12; 65.8 µM (inactive) in the assay on UACC-257; 35.4 µM in the assay with HCT-15; 67.6 µM (inactive) with SF-295.
On to `CC1CCC2(OC1)OC1CC3C4CCC5CC(O)CCC5(C)C4CC(=O)OC3(C)C1C2C` (stereo unspecified), for which the GI50 in the assay with LOX IMVI, in the assay on IGROV-1, in the assay with SF-268, in the assay on SNB-75, in the assay on SNB-19 and in the assay on NCI-H460 was > 100 µM (inactive) in each case. For the same compound, the GI50 with CCRF-CEM, in the assay on A498, in the assay on OVCAR-4, in the assay with ACHN, with SK-OV-3 and with U-251 was > 100 µM (inactive) throughout. Besides, the GI50 was > 100 µM (inactive) in the assay on K562; > 100 µM (inactive) in the assay on KM12; > 100 µM (inactive) in the assay on UACC-257; over 100 µM in the assay with HCT-15; > 100 µM (inactive) in the assay with SF-295.
As to `COc1cccc(NC(=O)C(=O)C2C=CCS2(=O)=O)c1` (stereo unspecified), the GI50 with LOX IMVI is > 100 µM (inactive); in the assay on IGROV-1, > 100 µM (inactive); with SF-268, > 100 µM (inactive); in the assay on SNB-75, 56 µM (inactive); in the assay on SNB-19, > 100 µM (inactive); with NCI-H460, > 100 µM (inactive). Besides, the GI50 with CCRF-CEM, in the assay with A498, with OVCAR-4, in the assay on ACHN, with SK-OV-3 and in the assay with U-251 was > 100 µM (inactive) throughout. Moreover, the GI50 in the assay with K562 was > 100 µM (inactive); in the assay with KM12, > 100 µM (inactive); with UACC-257, > 100 µM (inactive); in the assay with HCT-15 it was over 100 µM; in the assay on SF-295, > 100 µM (inactive).
For the compound `CC1=CC(=O)N(c2c(C)cccc2Cl)C(C)N1` (stereo unspecified), the GI50 in the assay with LOX IMVI, in the assay with IGROV-1, in the assay on SF-268, in the assay with SNB-75, in the assay with SNB-19 and in the assay on NCI-H460 was > 100 µM (inactive) each time. The GI50 in the assay on CCRF-CEM, in the assay with A498, with OVCAR-4, in the assay with ACHN, in the assay with SK-OV-3 and with U-251 was > 100 µM (inactive) throughout. Also, the GI50 was > 100 µM (inactive) with K562; > 100 µM (inactive) in the assay with KM12; > 100 µM (inactive) in the assay with UACC-257; over 100 µM with HCT-15; > 100 µM (inactive) in the assay with SF-295.
Take `O=C(Nc1cc(Cl)c(Cl)cc1Cl)C(=O)C1C(=O)NC(=S)NC1=O`: the GI50 in the assay with LOX IMVI, in the assay with IGROV-1, in the assay with SF-268, in the assay on SNB-75, with SNB-19 and in the assay with NCI-H460 was > 100 µM (inactive) each time. Moreover, the GI50 in the assay with CCRF-CEM, in the assay with A498, with OVCAR-4, in the assay on ACHN, in the assay on SK-OV-3 and in the assay on U-251 was > 100 µM (inactive) throughout. Besides, the GI50 with K562 was > 100 µM (inactive); with KM12 it was > 100 µM (inactive); with UACC-257, > 100 µM (inactive); in the assay with HCT-15 it was over 100 µM; with SF-295, > 100 µM (inactive).
Take `O=C(/C=C1\Nc2ccccc2C(=O)N1c1ccccc1Cl)c1ccccc1`: the GI50 in the assay on LOX IMVI was > 100 µM (inactive); in the assay with IGROV-1, > 100 µM (inactive); in the assay with SF-268, > 100 µM (inactive); with SNB-75, 32.7 µM (inactive); in the assay on SNB-19, > 100 µM (inactive); with NCI-H460 it was > 100 µM (inactive). Also, the GI50 in the assay on CCRF-CEM is > 100 µM (inactive); with A498, > 100 µM (inactive); in the assay on OVCAR-4, 67.5 µM (inactive); in the assay on ACHN, > 100 µM (inactive); in the assay with SK-OV-3, > 100 µM (inactive); in the assay on U-251, > 100 µM (inactive). The GI50 with K562 is 87.5 µM (inactive); with KM12 it was 84.1 µM (inactive); with UACC-257, > 100 µM (inactive); with HCT-15 it was over 100 µM; with SF-295 it was > 100 µM (inactive).
`CCOC(=O)C1C=C2O[C@@H]3OC4(CCCCC4)O[C@@H]3C2C2C(=O)CCC(=O)[C@@]12C(=O)OC` (stereo partly specified): the GI50 in the assay with LOX IMVI, with IGROV-1, in the assay on SF-268, in the assay with SNB-75, with SNB-19 and with NCI-H460 was > 100 µM (inactive) each time. Also, the GI50 in the assay on CCRF-CEM, with A498, in the assay with OVCAR-4, in the assay with ACHN, in the assay with SK-OV-3 and with U-251 was > 100 µM (inactive) each time. In addition, the GI50 was > 100 µM (inactive) in the assay with K562; > 100 µM (inactive) in the assay on KM12; > 100 µM (inactive) in the assay on UACC-257; over 100 µM in the assay with HCT-15; > 100 µM (inactive) with SF-295.
Regarding `COC1O[C@H]2[C@H]3[C@@H]1[C@@H](OS(=O)(=O)c1ccc(C)cc1)C(=O)N3C[C@H]2O` (stereo partly specified), the GI50 in the assay with LOX IMVI, in the assay with SF-268, in the assay on SNB-19, in the assay with NCI-H460, with A498 and with OVCAR-4 was > 100 µM (inactive) each time. In addition, the GI50 was > 100 µM (inactive) in the assay with ACHN; > 100 µM (inactive) with SK-OV-3; > 100 µM (inactive) in the assay on U-251; 65.9 µM (inactive) in the assay with K562; > 100 µM (inactive) in the assay on KM12; > 100 µM (inactive) with UACC-257. Further, the figures for the GI50 in the assay on T47D, in the assay on HCT-15 and in the assay with SF-295 were 64.4 µM (inactive), over 100 µM and > 100 µM (inactive), respectively.
As to `CCNc1nc2c(=O)n(C)c(=O)n(C)c2s1`, the GI50 with LOX IMVI, in the assay on IGROV-1, in the assay on SF-268, with SNB-75, with SNB-19 and in the assay on NCI-H460 was > 100 µM (inactive) in each case. In addition, the GI50 with CCRF-CEM, in the assay with A498, with OVCAR-4, with ACHN, in the assay with SK-OV-3 and with U-251 was > 100 µM (inactive) throughout. For the same compound, the GI50 in the assay with K562 was > 100 µM (inactive); with KM12 it was > 100 µM (inactive); in the assay on UACC-257, > 100 µM (inactive); with HCT-15, over 100 µM; in the assay on SF-295, > 100 µM (inactive).
As for `C=C1C=CC2(Br)OC3CC(C)(Cl)C(Br)CC13C2(C)C` (stereo unspecified), the GI50 with LOX IMVI was 18.9 µM (inactive); with IGROV-1, 28.9 µM (inactive); in the assay with SF-268, 30.1 µM (inactive); with SNB-75, 25.2 µM (inactive); in the assay with SNB-19 it was 27 µM (inactive); in the assay with NCI-H460, 22 µM (inactive). For the same compound, the GI50 is 25.1 µM (inactive) in the assay on CCRF-CEM; 22.3 µM (inactive) in the assay with A498; 30.1 µM (inactive) with OVCAR-4; 23.6 µM (inactive) with ACHN; 30.5 µM (inactive) in the assay on SK-OV-3; 18.8 µM (inactive) with U-251. Moreover, the GI50 in the assay on K562 was 17.9 µM (inactive); with KM12, 24.4 µM (inactive); in the assay with UACC-257 it was 18.5 µM (inactive); in the assay on HCT-15 it was 23 µM; in the assay on SF-295, 20.4 µM (inactive).
With `CCc1nnc(CC)n1N1C(=O)CCC1=O`, the GI50 in the assay on LOX IMVI, in the assay with MDA-N, with IGROV-1, in the assay with SF-268, in the assay with SNB-75 and in the assay on SNB-19 was > 100 µM (inactive) in each case. Moreover, the GI50 in the assay with CCRF-CEM, in the assay with OVCAR-4, with ACHN, in the assay with SK-OV-3, with U-251 and in the assay on K562 was > 100 µM (inactive) in each case. Further, the GI50 with KM12 is > 100 µM (inactive); with UACC-257, > 100 µM (inactive); in the assay with HCT-15 it was over 100 µM; in the assay with SF-295, > 100 µM (inactive).
